Test results taken from PubChem BioAssay (NCI).
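48-hour exposure; five concentrations; linearly interpolated endpoints. TGI: total growth inhibition.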

Tests used:
Assay in all cases: growth of human tumour cells (NCI), 48 h
[1] = system: ACHN renal
[2] = system: HT29 colon
[3] = system: DU-145 prostate
[4] = system: MDA-N
[5] = system: MALME-3M melanoma
[6] = system: UACC-257 melanoma
[7] = system: OVCAR-3 ovarian
[8] = system: COLO 205 colon
[9] = system: MDA-MB-231 breast
[10] = system: HOP-62 NSCLC
[11] = system: CAKI-1 renal
[12] = system: SF-295 CNS
[13] = system: U251 CNS
[14] = system: HOP-92 NSCLC
[15] = system: HL-60(TB) leukemia
[16] = system: IGROV1 ovarian
[17] = system: RXF 393 renal
[18] = system: T-47D breast
[19] = system: CCRF-CEM leukemia
[20] = system: LOX IMVI melanoma
[21] = system: MCF7 breast
[22] = system: NCI-H522 lung
[23] = system: SN12C renal
[24] = system: A549 NSCLC
[25] = system: KM12 colon
[26] = system: NCI/ADR-RES ovarian
[27] = system: A498 renal
[28] = system: MOLT-4 leukemia
[29] = system: OVCAR-5 ovarian
[30] = system: HCT-116 colon
[31] = system: TK-10 renal
[32] = system: OVCAR-8 ovarian
[33] = system: UACC-62 melanoma
[34] = system: SNB-19 CNS
[35] = system: SF-539 CNS
[36] = system: EKVX NSCLC
[37] = system: PC-3 prostate
[38] = system: SNB-75 CNS
[39] = system: SW-620 colon
[40] = system: NCI-H23 lung
[41] = system: M14 melanoma
[42] = system: UO-31 renal
[43] = system: HCT-15 colon
[44] = system: K-562 leukemia
[45] = system: SK-MEL-2 melanoma
[46] = system: SK-OV-3 ovarian
[47] = system: HS 578T breast
[48] = system: MDA-MB-435
[49] = system: HCC-2998 colon
[50] = system: OVCAR-4 ovarian
[51] = system: BT-549 breast
[52] = system: NCI-H460 lung
[53] = system: SK-MEL-28 melanoma
[54] = system: RPMI-8226 leukemia
[55] = system: SK-MEL-5 melanoma
[56] = system: SF-268 CNS
[57] = system: NCI-H226 lung
[58] = system: 786-0 renal

## CC1CC(Br)C(=O)O1 (configuration not stated)
[1]
  TGI: > 100 µM
[2]
  TGI: > 100 µM
[3]
  TGI: > 100 µM
[4]
  TGI: > 100 µM
[5]
  TGI: > 100 µM
[6]
  TGI: > 100 µM
[7]
  TGI: > 100 µM
[8]
  TGI: > 100 µM
[9]
  TGI: > 100 µM
[10]
  TGI: > 100 µM
[11]
  TGI: > 100 µM
[12]
  TGI: > 100 µM
[13]
  TGI: > 100 µM
[14]
  TGI: > 100 µM
[15]
  TGI: > 100 µM
[16]
  TGI: > 100 µM
[17]
  TGI: > 100 µM
[18]
  TGI: > 100 µM
[19]
  TGI: > 100 µM
[20]
  TGI: > 100 µM
[21]
  TGI: > 100 µM
[22]
  TGI: > 100 µM
[23]
  TGI: > 100 µM
[24]
  TGI: > 100 µM
[25]
  TGI: > 100 µM
[26]
  TGI: > 100 µM
[27]
  TGI: > 100 µM
[28]
  TGI: > 100 µM
[29]
  TGI: > 100 µM
[30]
  TGI: > 100 µM
[31]
  TGI: > 100 µM
[32]
  TGI: > 100 µM
[33]
  TGI: > 100 µM
[34]
  TGI: > 100 µM
[35]
  TGI: > 100 µM
[36]
  TGI: > 100 µM
[37]
  TGI: > 100 µM
[38]
  TGI: > 100 µM
[39]
  TGI: > 100 µM
[40]
  TGI: > 100 µM
[41]
  TGI: > 100 µM
[42]
  TGI: > 100 µM
[43]
  TGI: > 100 µM
[44]
  TGI: > 100 µM
[45]
  TGI: > 100 µM
[46]
  TGI: > 100 µM
[47]
  TGI: > 100 µM
[48]
  TGI: > 100 µM
[49]
  TGI: > 100 µM
[50]
  TGI: > 100 µM
[51]
  TGI: > 100 µM
[52]
  TGI: > 100 µM
[53]
  TGI: > 100 µM
[54]
  TGI: > 100 µM
[55]
  TGI: > 100 µM
[56]
  TGI: > 100 µM

## O=C(Nc1ncc([N+](=O)[O-])s1)c1ccccc1O
[1]
  TGI: > 84.5 µM
[2]
  TGI: > 76.2 µM
[3]
  TGI: > 89.4 µM
[4]
  TGI: 99.4 µM
[5]
  TGI: 77.2 µM
[6]
  TGI: 98.4 µM
[7]
  TGI: > 42.4 µM
[8]
  TGI: 36.1 µM
[9]
  TGI: > 77.5 µM
[10]
  TGI: > 59.6 µM
[11]
  TGI: > 100 µM
[12]
  TGI: 46.5 µM
[13]
  TGI: > 100 µM
[14]
  TGI: 7.98 µM
[16]
  TGI: > 100 µM
[17]
  TGI: 23.6 µM
[18]
  TGI: 64 µM
[20]
  TGI: > 100 µM
[21]
  TGI: > 100 µM
[22]
  TGI: 28.3 µM
[23]
  TGI: 77.7 µM
[57]
  TGI: 27.1 µM
[24]
  TGI: > 87.4 µM
[25]
  TGI: 68.7 µM
[26]
  TGI: > 82.4 µM
[27]
  TGI: > 100 µM
[28]
  TGI: > 100 µM
[29]
  TGI: > 100 µM
[30]
  TGI: 46.4 µM
[58]
  TGI: > 100 µM
[31]
  TGI: > 100 µM
[32]
  TGI: > 100 µM
[33]
  TGI: 41.7 µM
[34]
  TGI: > 100 µM
[35]
  TGI: > 100 µM
[36]
  TGI: > 92.2 µM
[37]
  TGI: > 94.7 µM
[38]
  TGI: > 70.8 µM
[39]
  TGI: > 100 µM
[40]
  TGI: > 70.5 µM
[41]
  TGI: 79.7 µM
[42]
  TGI: 98.1 µM
[43]
  TGI: > 86.9 µM
[44]
  TGI: > 100 µM
[45]
  TGI: 35.6 µM
[46]
  TGI: > 100 µM
[47]
  TGI: 32.5 µM
[48]
  TGI: 66.7 µM
[49]
  TGI: > 100 µM
[50]
  TGI: > 100 µM
[51]
  TGI: 79.2 µM
[52]
  TGI: > 100 µM
[53]
  TGI: > 100 µM
[54]
  TGI: 55 µM
[55]
  TGI: 37.5 µM
[56]
  TGI: > 75.1 µM
